These are literature values, as cited in article PMC4895178 (Scientific Reports, 2016).

A word on the half-life: it is the time in which the quantity being followed falls by half.

For the series the following is noted: in plasma. From the text:
The pioneering work of Vale et al.[8] established that residues 7 to 10 form the ph ...

The structures appear in SMILES notation.

With `C[C@H](N)C(=O)NCC(=O)N[C@H]1CSSC[C@@H](C(=O)O)NC(=O)[C@H](CO)NC(=O)[C@H]([C@@H](C)O)NC(=O)[C@H](Cc2ccccc2)NC(=O)[C@H]([C@@H](C)O)NC(=O)[C@H](CCCCN)NC(=O)[C@H](Cc2c[nH]c3ccccc23)NC(=O)[C@H](Cc2ccccc2)NC(=O)[C@H](Cc2ccccc2)NC(=O)[C@H](CC(N)=O)NC(=O)[C@H](CCCCN)NC1=O` [Somatostatin (SRIF), Somatostatin], the half-life was 2 to 3 min.
